pAKT levels data for one compound are collected here from paper PMC6689897, “Drugging an undruggable pocket on KRAS” (Proceedings of the National Academy of Sciences of the …, 2019).

In this test the test system is NCI-H358 cells. Nature of the test: pAKT quantification (Meso Scale Discovery). Format: cell-based, human. Here is the method:
217 The coordinates and structure factors of the structures have been deposited at the
218 Protein Data Bank with the accession codes PDB Code 6GJ5, 6GJ6, 6GJ7, 6GJ8.
221 Measurements of various protein–protein interactions were performed using the Alpha
222 Screen technology developed by Perkin Elmer. Recombinant RAS proteins (H-, N-, K-
223 RAS variants; all KRAS variants are based on KRAS isoform 4B (uniprot id P01116-2);
224 KRAS (G12D) 1-169, N-terminal 6His-tag, C-terminal avi-tag was from Xtal
225 BioStructures, Inc., KRAS (G12C) 1-169, C-terminal avi-tag, biotinylated, mutations:
226 C51S, C80L, C118S, NRAS(wt) 1-172, C-terminal avi-tag, biotinylated; HRAS(wt) 1-
227 166, C-terminal avi-tag, biotinylated). Biotinylation was performed in vitro with
228 recombinant BirA biotin-protein ligase as recommended by the manufacturer (Avidity […]
231 PI3KA- RBD (160-317, N-term-HIS_GST-tag) were expressed as glutathione S […]
245 for 60 min in the dark at room temperature. Single oxygen induced fluorescence was
246 measured at an Enspire multimode plate reader (Perkin Elmer) according to the
247 manufacturer’s recommendations. Data were analyzed using the GraphPad Prism data […]
313 added according to manufacturer’s instructions. Fluorescence intensity was determined
314 using a fluorescence reader (2030 VICTOR X5, Perkin Elmer). […]
319 MAPK pathway signaling (pERK, pAKT quantification) […]

Turning to `Cn1cnc(Cn2ccc3ccc(CNCc4[nH]c5ccccc5c4[C@H]4NC(=O)c5ccc(O)cc54)cc32)c1` [Compound 1], the pAKT levels entry is on record as “no reduction of pAKT levels” (high serum conditions) and “dose-dependently reduced” (starved 24 h low serum, 2 h compound, then EGF).
